Results as given in PMC2749862, “Glucocorticoids with different chemical structures but similar glucocorticoid receptor potency regulate subsets of common and unique genes in human trabecular meshwork cells” (BMC Medical Genomics, 2009).
Where “and” joins values, the source holds several entries; their conditions need not be identical. Equal entries are not always repeated.

Columns and labels:
TM 86 cells = assay: Microarray gene expression profiling in TM 86 cells (with IPA and GoMiner analysis); assay type: cell-based, human; conditions: 1 μM, 24 hr
From the text: (§1) Cells were maintained in low glucose Dulbecco's Modified Eagle Medium (DMEM, Invitrogen, Carlsbad, CA) supplemented with 10% (vol/vol) FBS (American Type Culture Collection, Manassas, VA), 1% (vol/vol) penicillin and streptomycin (Invitrogen). Cells from the human HeLa cervical adenocarcinoma cell line (American Type Culture Collection) were maintained in α-MEM medium supplemented with 10% (v/v) FBS, 1% (v/v) penicillin and streptomycin. All cells were used within passages 3 to 6. […] Cells were maintained for one week with medium renewal every other day. The day before the experiment, confluent TM were washed once with phosphate-buffered saline (PBS) and then the cells were maintained in 1% FBS-containing medium with antibiotics. […] Control cells were treated with 0.1%(v/v) dimethylsulfoxide (DMSO). At the end of GC treatment, supernatant was discarded and the cell monolayer was kept frozen at -80°C for subsequent total RNA extraction and gene expression profiling. […] Briefly, RNA was isolated from flash frozen cell culture plates using RNeasy Mini columns (Qiagen, Valencia, CA) according to the manufacturer's protocol. There were three biological replicates per treatment condition. The quantity and purity of the extracted RNA was evaluated using a NanoDrop ND-1000 spectrophotometer (Nanodrop Technologies, Wilmington, DE, USA) and its integrity measured using an Agilent Bioanalyzer. […] The amount and quality of the fluorescently labeled cRNA was assessed using a NanoDrop ND-1000 spectrophotometer and an Agilent Bioanalyzer. An equal amount of Cy3-labeled cRNA (1.6 μg) was hybridized to the Agilent Human Whole Genome Oligo Microarray (Agilent Technologies) for 17 hours, prior to washing and scanning. Data were extracted from scanned images using Agilent's Feature Extraction Software (Agilent Technologies) using default settings. […] The full complement of microarray data has been deposited in the NIH/NLM Gene Expression Omnibus (GEO accession # GSE16643). […] The lists of differentially expressed genes were also applied to global functional, network and canonical pathway analyses using Ingenuity Pathway Analysis (Ingenuity® Systems, Redwood City, CA).

glucocorticoid receptor [1] = molecular target: T1, glucocorticoid receptor (Homo sapiens, UniProt P04150); assay: GR radiolabeled competitive binding assay (IM-9 cell cytosol, [3H]dexamethasone; Cerep); conditions: for nH (Hill coefficient): IM-9 cell cytosol competition curves
T1 sequence (P04150 524-777 limits assumed): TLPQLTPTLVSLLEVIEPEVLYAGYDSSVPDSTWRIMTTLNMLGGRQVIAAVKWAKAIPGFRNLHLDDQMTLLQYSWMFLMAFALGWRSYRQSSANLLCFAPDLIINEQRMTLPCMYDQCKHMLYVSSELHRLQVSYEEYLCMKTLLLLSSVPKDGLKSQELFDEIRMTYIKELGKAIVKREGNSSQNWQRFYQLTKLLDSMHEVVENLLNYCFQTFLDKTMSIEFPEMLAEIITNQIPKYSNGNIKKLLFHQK
Method: GR binding affinity assay was performed at Cerep Inc. (Celle l'Evescault, France), according to an established method. […] Nonspecific binding is determined in the presence of 10 μM triamcinolone. Following incubation, the samples are filtered rapidly under vacuum through glass fiber filters (GF/B, Packard) presoaked with 0.3% Poly(ethyleneimine) and rinsed several times with ice-cold 50 mM Tris-HCl using a 96-sample cell harvester (Unifilter, Packard). The filters are dried and counted for radioactivity in a scintillation counter (Topcount, Packard) using a scintillation cocktail (Microscint 0, Packard). The results are expressed as percent inhibition of the control radioligand specific binding. The IC50 values (concentration causing half-maximal inhibition of control specific binding) and Hill coefficients (nH) were determined by non-linear regression analysis of the competition curves generated with mean replicate values using Hill equation curve fitting (Y = D + [(A - D)/(1 + (C/C50)^nH)], where Y = specific binding, D = minimum specific binding, A = maximum specific binding, C = compound concentration, C50 = IC50, and nH = slope factor). […] The inhibition constants (Ki) were calculated using the Cheng Prusoff equation (Ki = IC50/(1+(L/KD)), where L = concentration of radioligand in the assay, and KD = affinity of the radioligand for the receptor). […] The GR binding assay was performed in duplicate.

TM 93 cells = assay: Microarray gene expression profiling in TM 93 cells (with IPA and GoMiner analysis); assay type: cell-based, human; conditions: 1 μM, 24 hr
From the text: as §1

glucocorticoid receptor [2] = molecular target: T1, glucocorticoid receptor; assay: GeneBLAzer beta-lactamase reporter gene assay, GR transactivation in MMTV-bla HeLa CellSensor cells; assay type: cell-based; conditions: 5 hr treatment
Method: GR transactivation activity was assessed by the Invitrogen SelectScreen Profiling Service (Madison, WI), using Invitrogen GeneBLAzer beta-lactamase reporter gene technology. Profiling was performed using human HeLa cells stably transfected with an expression construct containing β-lactamase cDNA under the control of the MMTV response element previously identified as a GR response element (MMTV-bla HeLa CellSensor®). The MMTV-bla HeLa cells were plated in 384-well plates in 32 μl assay medium (OPTIMEM + 1% charcoal/dextran stripped FBS) at a density of 10,000 cells/well and incubated overnight. […] The β-lactamase activity of each sample was determined by adding 8 μl of 6-fold concentrated LiveBLAzer™ substrate solution to the samples followed by two hours of incubation at room temperature in a Tecan Safire2 plate reader using the appropriate LiveBLAzer™ filter settings. GC treatment was performed in 15-point dose response using a three-fold dilution series starting with a maximum compound concentration of 10 μM. Each data point represents a triplicate sample (n = 3). Assay reproducibility was determined by calculating Z' values for untreated vs. maximum stimulation. The GeneBLAzer assay was performed twice.

C[C@@H]1C[C@H]2[C@@H]3CCC4=CC(=O)C=C[C@]4(C)[C@@]3(F)[C@@H](O)C[C@]2(C)[C@@]1(O)C(=O)CO [DEX, dexamethasone]
function of significantly regulated transcripts (Ingenuity Pathway Analysis) (TM 86 cells): RNA post-transcriptional modifications | number of genes uniquely regulated by each GC (TM 86 cells): 1761 | significantly regulated biological process (GoMiner gene ontology) (TM 86 cells): cellular component organization and biogenesis | significantly regulated network (Ingenuity Pathway Analysis) (TM 86 cells): a network centered around the RNA binding protein S1 or RNPS1 | nH (Hill coefficient) (glucocorticoid receptor [1]): 1.06 ± 0.18 | function of significantly regulated genes (Ingenuity Pathway Analysis) (TM 93 cells): histone methylation | number of genes uniquely regulated by each GC (TM 93 cells): 745 | significantly regulated biological process (GoMiner gene ontology) (TM 93 cells): membrane lipid metabolic process | significantly regulated network (Ingenuity Pathway Analysis) (TM 93 cells): a network centered around a histone methyltransferase known as suppressor of zeste 12 homolog or SUZ12

CC1(C)O[C@@H]2C[C@H]3[C@@H]4C[C@H](F)C5=CC(=O)C=C[C@]5(C)[C@@]4(F)[C@@H](O)C[C@]3(C)[C@]2(C(=O)CO)O1 [FA, fluocinolone acetonide]
function of significantly regulated transcripts (Ingenuity Pathway Analysis) (TM 86 cells): lipid metabolism | number of genes uniquely regulated by each GC (TM 86 cells): 693 | significantly regulated biological process (GoMiner gene ontology) (TM 86 cells): actin filament-based process | significantly regulated network (Ingenuity Pathway Analysis) (TM 86 cells): a GR-dependent network | ANGPTL4 FC (fold change) (TM 86 cells; microarray): 9.6 fold | ANGPTL7 FC (fold change) (TM 86 cells; microarray): 16.0 fold | AQP1 FC (fold change) (TM 86 cells; microarray): -4.4 fold | CCRL1 FC (fold change) (TM 86 cells; microarray): -4.7 fold | CXADR FC (fold change) (TM 86 cells; microarray): -3.4 fold | FKBP5 FC (fold change) (TM 86 cells; microarray): 13.8 fold | GABRB1 FC (fold change) (TM 86 cells; microarray): -4.0 fold | ITGA10 FC (fold change) (TM 86 cells; microarray): 25.1 fold | KAL1 FC (fold change) (TM 86 cells; microarray): -5.6 fold | KCNB1 FC (fold change) (TM 86 cells; microarray): 20.1 fold | KIF4A FC (fold change) (TM 86 cells; microarray): -3.6 fold | KLF15 FC (fold change) (TM 86 cells; microarray): 11.5 fold | LSP1 FC (fold change) (TM 86 cells; microarray): 14.9 fold | MXRA5 FC (fold change) (TM 86 cells; microarray): -4.3 fold | MYOC FC (fold change) (TM 86 cells; microarray): 7.4 fold | PCDH19 FC (fold change) (TM 86 cells; microarray): -5.1 fold | PER3 FC (fold change) (TM 86 cells; microarray): -5.3 fold | PF4 FC (fold change) (TM 86 cells; microarray): 3.1 fold and 3.2 fold | RASL11B FC (fold change) (TM 86 cells; microarray): -4.9 fold | RGC32 FC (fold change) (TM 86 cells; microarray): >100 fold | SAA1 FC (fold change) (TM 86 cells; microarray): 34.6 fold | ZBTB16 FC (fold change) (TM 86 cells; microarray): 8.7 fold | nH (Hill coefficient) (glucocorticoid receptor [1]): 1.10 ± 0.00 | Ki (glucocorticoid receptor [1]; IM-9 cell cytosol, calculated by Cheng Prusoff equation): 0.97 ± 0.17 nM | IC50 (glucocorticoid receptor [1]; read-out: GR binding affinity IC50): 2 ± 0.42 nM | EC50 (glucocorticoid receptor [2]): 0.7 nM and 0.67 nM | function of significantly regulated genes (Ingenuity Pathway Analysis) (TM 93 cells): cell cycle | number of genes uniquely regulated by each GC (TM 93 cells): 2294 | significantly regulated biological process (GoMiner gene ontology) (TM 93 cells): biopolymer metabolic process | significantly regulated network (Ingenuity Pathway Analysis) (TM 93 cells): JARID1B-based network | ANGPTL4 FC (fold change) (TM 93 cells; microarray): 9.1 fold | ANGPTL7 FC (fold change) (TM 93 cells; microarray): 13.0 fold | AQP1 FC (fold change) (TM 93 cells; microarray): -3.2 fold | CCRL1 FC (fold change) (TM 93 cells; microarray): -2.5 fold | CXADR FC (fold change) (TM 93 cells; microarray): -1.8 fold | ENST00000344214 FC (fold change) (TM 93 cells; microarray): -6.3 fold | FKBP5 FC (fold change) (TM 93 cells; microarray): 6.8 fold | GABRB1 FC (fold change) (TM 93 cells; microarray): -2.2 fold | ITGA10 FC (fold change) (TM 93 cells; microarray): 9.1 fold | KAL1 FC (fold change) (TM 93 cells; microarray): -3.0 fold | KCNB1 FC (fold change) (TM 93 cells; microarray): 5.2 fold | KIF4A FC (fold change) (TM 93 cells; microarray): -2.2 fold | KLF15 FC (fold change) (TM 93 cells; microarray): 3.6 fold | LSP1 FC (fold change) (TM 93 cells; microarray): 18.0 fold | MXRA5 FC (fold change) (TM 93 cells; microarray): -4.5 fold | MYOC FC (fold change) (TM 93 cells; microarray): 2.7 fold | OCA2 FC (fold change) (TM 93 cells; microarray): 98.0 fold | PCDH19 FC (fold change) (TM 93 cells; microarray): -3.9 fold | PER3 FC (fold change) (TM 93 cells; microarray): -3.6 fold | PF4 FC (fold change) (TM 93 cells; microarray): 6.5 fold | RGC32 FC (fold change) (TM 93 cells; microarray): 11.0 fold | SAA1 FC (fold change) (TM 93 cells; microarray): 8.3 fold | ZBTB16 FC (fold change) (TM 93 cells; microarray): 4.9 fold
